These results are taken from patent US20150051203A1, “TRIAZOLE DERIVATIVES AS HSP90 INHIBITORS” (Synta Pharmaceuticals Corp., priority 2012, published 2015).

The subject of one data set is Her2. In words: Degradation of Her2 in BT-474 cells (Western blot, Method 1). The data set is classed as cell-based, Human. Particulars: 0.5 μM, overnight. As for the experimental part:
BT-474 cells are treated with 0.5 μM, 2 μM, or 5 μM of 17AAG (a positive control) or 0.5 μM, 2 μM, or 5 μM of a compound of the invention overnight in DMEM medium. After treatment, each cytoplasmic sample is prepared from 1×10^6 cells by incubation of cell lysis buffer (#9803, Cell Signaling Technology) on ice for 10 minutes. The resulting supernatant used as the cytosol fractions is dissolved with sample buffer for SDS-PAGE and run on a SDS-PAGE gel, blotted onto a nitrocellulose membrane by using semi-dry transfer. Non-specific binding to nitrocellulose is blocked with 5% skim milk in TBS with 0.5% Tween at room temperature for 1 hour, then probed with anti-Her2/ErB2 mAb (rabbit IgG, #2242, Cell Signaling) and anti-Tubulin (T9026, Sigma) as housekeeping control protein. HRP-conjugated goat anti-rabbit IgG (H+L) and HRP-conjugated horse anti-mouse IgG (H+L) are used as secondary Ab (#7074, #7076, Cell Signaling) and LumiGLO reagent, 20× Peroxide (#7003, Cell Signaling) is used for visualization.
BT-474 cells were treated with 0.5 μM, 2 μM, or 5 μM of 17AAG (a positive control) or 0.5 μM, 2 μM, or 5 μM of a compound of the invention overnight in DMEM medium. After treatment, each cytoplasmic sample was prepared from 1×10^6 cells by incubation of cell lysis buffer (#9803, Cell Signaling Technology) on ice for 10 minutes. […]

A short description of data set [1]: Caco-2 permeability assay. The data set is classed as in vitro ADME. Particulars: human. As for the experimental part:
Caco-2 cells were cultured on 24-well plates at 0.8×10^5 cells/cm^2 for approximately 20 days until TEER values were above 300 Ωcm^2. Caco-2 monolayers were rinsed twice with transport buffer (HBSS supplemented with 10 mM HEPES and 25 mM glucose, pH 7.4) and then pre-incubated for 30 min. Test and control compound solutions were loaded into the donor (A) or acceptor (B) compartments of a 24-well plate and incubated at 37° C. with 5% CO2 and 65% humidity for 2 h. For A to B permeability, the donor wells contained test compound and corresponding acceptor wells contained transport buffer. For B to A permeability, the […]. Atenolol and propranolol were used as low and high permeability compound controls, respectively. Digoxin was used was a P-gp substrate control. Cell viability was tested with Lucifer yellow at the end of the study.
Permeability was calculated as follows:
[formula] PappA to B={0.0005376×([Drug] Acceptor/[Drug] Initial)}
PappB to A={0.0001792×([Drug] Acceptor/[Drug] Initial)}
Polarization Ratio=PappB to A/PappA to B
Polarization ratio >2 considered as an efflux (P-gp) substrate.

A short description of data set [2]: Exploratory small molecule PK study in rats. It counts as in vivo, male Sprague-Dawley rats. Also noted: AUClast: unit not given here. The note with it: rat; for half-life: male, Sprague-Dawley, plasma, read-out: T½ (converted). As to the method:
PK studies were conducted in male Sprague-Dawley rats. One group was dosed by IV (n=2) and another group was dosed orally (n=3). Blood samples were collected in lithium heparin coated microfuge tubes at 5 (IV only), 15, 30 min, 1, 3, 4, 6, 8, 24 h post dose. Samples were then centrifuged under refrigerated conditions and plasma was collected for analysis.
A solvent-based protein precipitation procedure was used to measure the concentration of each compound in plasma and/or whole blood. Samples were analyzed with an Agilent 1100 HPLC (Santa Clara, Calif.) interfaced to an API 4000 tandem mass spectrometer (Applied Biosystems, Foster City, Calif.) using a Synergy, Hydro-RP column (4 μm, 2×50 mm; Phenomenex, Torrance, Calif.) at a flow rate of 0.5 ml/min. Mobile phase consisted of 10 mM ammonium acetate in water (A) and 10 mM ammonium acetate in 95/5 (v/v) methanol/water (B). Total run time was 5 min with the gradient elution. […] All standard curves were fit to a quadratic equation with a weighing factor of 1/(concentration)^2 to calculate compound concentrations.

Read-outs that look alike come from different tables or passages of the source.

`C=CCNC1=C2C[C@@H](C)C[C@H](OC)[C@H](O)[C@@H](C)/C=C(\C)[C@H](OC(N)=O)[C@@H](OC)/C=C\C=C(/C)C(=O)NC(=CC1=O)C2=O` [Compound 17AAG, 17-allylamino-17-demethoxygeldanamycin]: the “degradation of Her2” value with Her2 is listed as “partial degradation of Her2”.
`CC(C)c1n[nH]c2cc(O)c(-c3nnc(C(=O)NCC(F)(F)F)n3-c3ccc(N4CCOCC4)cc3)cc12` [Compound 38, 5-(6-hydroxy-3-isopropyl-1H-indazol-5-yl)-4-(4-morpholinophenyl)-N-(2,2,2-trifluoroethyl)-4H-1,2,4-triazole-3-carboxamide]: the Papp A→B at 2 h in data set [1] (A to B, 2 h, 37° C., pH 7.4) stood at 12.4 ×10⁻⁶ cm/s. For the same compound, the efflux ratio at 2 h in data set [1] (pH 7.4, ratio >2 considered as an efflux (P-gp) substrate, read-out: Pol. Ratio B-A/A-B) worked out at 2. The half-life is 2.3 h in data set [2] (IV 5 mg/Kg, DPD) and 10.7 h in data set [2] (PO 25 mg/Kg, D5W). For the same compound, the AUClast was found to be 2.6 in data set [2] (IV 5 mg/Kg, DPD) and 0.07 in data set [2] (PO 25 mg/Kg, D5W). The F in data set [2] (PO 25 mg/Kg D5W vs IV 5 mg/Kg DPD) turned out to be 0.52%.

Broadly, the Papp A→B is how fast a substance crosses the layer from the apical side.
